Source: the supplement of paper PMC10307832

What was measured:
Test in all cases: relative viability (nuclei count vs DMSO), 5 days (fraction); higher = more cells survive
AZ23 = compound: CC(C)Oc1cc(Nc2nc(N[C@@H](C)c3ccc(F)cn3)ncc2Cl)n[nH]1 [AZ23]
How it was run: (§1)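 Lung cancer cell lines were seeded into 1536-well plates, kept overnight at 37 °C and pinned with five library-drug doses (not always all listed) spaced by √10. After 5 days, nuclei were Hoechst-stained, imaged at 4× and counted with MetaXpress. Viability is treated-well nuclei over vehicle-well nuclei, taken as a median across plates. Plates needed control CV below 25% and at least one doubling.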

Vatalanib = compound: Clc1ccc(Nc2nnc(Cc3ccncc3)c3ccccc23)cc1 [Vatalanib]
How it was run: as §1

[1] = compound: C[C@@H]1CN(CC(=O)Nc2ccc3c(c2)Cc2cccc(-c4cc(=O)cc(N5CCOCC5)o4)c2S3)C[C@H](C)O1
How it was run: as §1

HG-5-88-01 = compound: CC(C)S(=O)(=O)C1=CC=CC=C1NC2=NC(=NC(=C2Cl)N)NC3=C(C=C(C=C3)N4CCC(CC4)C(=O)N)OC [HG-5-88-01]
How it was run: as §1

Embelin = compound: CCCCCCCCCCCC1=C(O)C(=O)C=C(O)C1=O [Embelin]
How it was run: as §1

Row | Cell Line | relative viability (AZ23; 0.01 µM) | relative viability (AZ23; 0.03162 µM) | relative viability (AZ23; 0.3162 µM) | relative viability (Vatalanib; 0.04 µM) | relative viability (Vatalanib; 0.1265 µM) | relative viability (Vatalanib; 0.4 µM) | relative viability (Vatalanib; 1.265 µM) | relative viability (Vatalanib; 4 µM) | relative viability ([1]; 0.04 µM) | relative viability ([1]; 0.1265 µM) | relative viability ([1]; 0.4 µM) | relative viability ([1]; 4 µM) | relative viability (HG-5-88-01; 0.04 µM) | relative viability (HG-5-88-01; 0.1265 µM) | relative viability (HG-5-88-01; 0.4 µM) | relative viability (HG-5-88-01; 1.265 µM) | relative viability (HG-5-88-01; 4 µM) | relative viability (Embelin; 0.08 µM) | relative viability (Embelin; 0.8 µM) | relative viability (Embelin; 2.53 µM) | relative viability (Embelin; 8 µM)
1 | NCI-H1437 | 1.02 | 1.09 | 1 | 0.984 | 0.987 | 1.01 | 0.938 | 0.969 | 0.977 | 0.995 | 1.06 | 0.885 | 1.04 | 1.04 | 0.995 | 0.917 | 1.01 | 0.961 | 1.11 | 1.04 | 0.709
2 | NCI-H1563 | 1.06 | 1.02 | 0.967 | 1.04 | 0.889 | 1.03 | 0.918 | 0.937 | 0.947 | 0.901 | 0.941 | 0.935 | 1.02 | 0.932 | 0.974 | 0.811 | 1.19 | 0.946 | 1.17 | 0.978 | 0.978
3 | NCI-H1623 | 0.984 | 0.964 | 0.955 | 0.963 | 1.14 | 1.04 | 0.879 | 0.933 | 0.942 | 0.973 | 1.02 | 0.957 | 1.09 | 0.979 | 0.983 |  | 0.856 | 0.926 | 0.988 | 1.06 | 0.972
4 | NCI-H1648 | 0.794 | 1.05 | 0.788 | 0.958 | 0.938 | 0.893 | 0.889 | 0.939 | 0.871 | 0.796 | 1.06 | 0.757 | 0.809 | 0.728 | 0.878 | 0.368 | 0.451 | 0.963 | 1.21 | 0.92 | 0.954
5 | NCI-H1650 | 0.826 | 1.17 | 1.12 | 1.06 | 0.851 | 0.799 | 0.818 | 0.851 | 0.95 | 0.999 | 0.949 | 0.769 | 0.904 | 0.92 | 0.812 | 0.871 | 0.723 | 0.994 | 1.08 | 0.942 | 0.877
6 | NCI-H1651 | 0.947 | 1.05 | 1.05 | 1.01 | 0.935 | 0.955 | 0.92 | 0.958 | 0.954 | 0.954 | 1.03 | 0.981 | 0.994 | 0.993 | 0.986 | 0.976 | 1.07 | 0.992 | 1.03 | 1.03 | 0.946
7 | NCI-H1666 | 0.988 | 1.03 | 0.976 | 0.958 | 1.03 | 1.04 | 1 | 0.981 | 0.983 | 1.05 | 1.03 | 0.903 | 1.03 | 1.03 | 0.847 | 0.869 | 0.864 | 0.939 | 1.06 | 0.976 | 1.01
8 | NCI-H1703 |  | 0.879 | 0.943 | 1.12 | 0.754 | 1.14 | 0.527 | 0.363 | 1.26 | 0.763 | 0.797 | 0.668 | 0.778 | 0.983 | 0.663 | 0.941 | 0.954 | 0.99 | 1.79 | 0.899 | 0.838
9 | NCI-H1734 | 1.03 | 1.01 | 0.983 | 0.977 | 0.916 | 1.11 | 0.95 | 1.06 | 1.01 | 1.03 | 1.04 | 1.12 | 0.88 | 0.978 | 0.959 | 0.886 | 1.1 | 1.05 | 1.23 | 1.19 | 0.874
10 | NCI-H1755 | 1.09 | 1.05 | 1.06 | 1.03 | 0.959 | 0.966 | 0.944 | 0.99 | 1.01 | 0.986 | 1.03 | 1.01 | 1.02 | 1.03 | 0.99 | 1.02 | 1.01 | 0.986 | 1.03 | 1.02 | 0.892
11 | NCI-H1792 | 0.788 | 1.07 | 1.1 | 0.912 | 0.707 | 0.861 | 0.827 | 0.782 | 0.895 | 0.8 | 0.9 | 0.797 | 1.01 | 1.08 | 1 | 0.834 | 1.03 | 0.924 | 1.07 | 1.11 | 1.06
12 | NCI-H1793 | 1.1 | 1.07 | 1.07 | 0.902 | 0.879 | 1.07 | 0.839 | 0.774 | 1.01 | 0.866 | 1.05 | 0.581 |  | 0.942 | 0.985 | 0.668 | 0.792 | 0.918 | 1.08 | 1.06 | 0.431
13 | NCI-H1915 | 1.1 | 1.06 | 1.01 | 1.05 | 0.943 | 1.01 | 0.981 | 0.992 | 0.966 | 0.985 | 1.01 | 0.748 | 1.03 | 1.06 | 1.01 | 1.13 | 0.745 | 1.08 | 1.07 | 1.04 | 0.983
14 | NCI-H1944 | 0.971 | 1.13 | 1.05 | 0.987 | 0.848 | 1.1 | 1.01 | 0.907 |  | 0.958 | 1.03 | 0.952 | 0.988 | 1.01 | 0.913 | 0.972 | 0.902 | 1 | 1.07 | 1.06 | 0.961
15 | NCI-H1975 | 1.13 | 1.09 | 0.971 | 0.972 | 0.919 | 1.01 | 0.787 | 0.841 | 0.932 | 0.901 | 0.935 | 0.738 | 0.951 | 0.972 | 0.835 | 0.844 | 0.454 | 1.03 | 0.959 | 0.94 | 1.04
16 | NCI-H1993 | 0.926 | 0.834 | 0.991 | 0.818 | 0.871 | 0.923 | 0.748 | 0.815 | 1.07 | 0.96 | 0.761 | 0.938 | 0.879 | 0.998 | 0.9 | 0.611 | 0.861 | 1.05 | 0.888 | 1.05 | 0.843
